Measured values published in ChEMBL document CHEMBL1201862, “PubChem BioAssay data set” (2004).
Active and inactive are the calls of the source.

Tests used:
Type in all cases: functional
[1] = target: T1, Sentrin-specific protease 8 (Homo sapiens, UniProt Q96LD8); test: inhibition of human SENP8 cleavage activity – biochemical, luminescence, SAR follow-up (AID 504501)
T1 sequence (Q96LD8 whole entry): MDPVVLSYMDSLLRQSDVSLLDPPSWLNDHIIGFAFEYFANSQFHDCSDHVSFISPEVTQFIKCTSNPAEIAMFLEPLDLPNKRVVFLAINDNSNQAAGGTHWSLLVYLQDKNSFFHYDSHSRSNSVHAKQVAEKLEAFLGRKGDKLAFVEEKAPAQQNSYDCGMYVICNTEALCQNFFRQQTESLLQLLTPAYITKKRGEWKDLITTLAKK

[2] = target: T2, Sentrin-specific protease 6 (Homo sapiens, UniProt Q9GZR1); test: SAR Analysis of small molecule inhibitors of Sentrin-specific protease 6 (SENP6) using a Luminescent assay. [Related pubchem assays (depositor defined):AID2582, AID2599]
T2 sequence (Q9GZR1 whole entry): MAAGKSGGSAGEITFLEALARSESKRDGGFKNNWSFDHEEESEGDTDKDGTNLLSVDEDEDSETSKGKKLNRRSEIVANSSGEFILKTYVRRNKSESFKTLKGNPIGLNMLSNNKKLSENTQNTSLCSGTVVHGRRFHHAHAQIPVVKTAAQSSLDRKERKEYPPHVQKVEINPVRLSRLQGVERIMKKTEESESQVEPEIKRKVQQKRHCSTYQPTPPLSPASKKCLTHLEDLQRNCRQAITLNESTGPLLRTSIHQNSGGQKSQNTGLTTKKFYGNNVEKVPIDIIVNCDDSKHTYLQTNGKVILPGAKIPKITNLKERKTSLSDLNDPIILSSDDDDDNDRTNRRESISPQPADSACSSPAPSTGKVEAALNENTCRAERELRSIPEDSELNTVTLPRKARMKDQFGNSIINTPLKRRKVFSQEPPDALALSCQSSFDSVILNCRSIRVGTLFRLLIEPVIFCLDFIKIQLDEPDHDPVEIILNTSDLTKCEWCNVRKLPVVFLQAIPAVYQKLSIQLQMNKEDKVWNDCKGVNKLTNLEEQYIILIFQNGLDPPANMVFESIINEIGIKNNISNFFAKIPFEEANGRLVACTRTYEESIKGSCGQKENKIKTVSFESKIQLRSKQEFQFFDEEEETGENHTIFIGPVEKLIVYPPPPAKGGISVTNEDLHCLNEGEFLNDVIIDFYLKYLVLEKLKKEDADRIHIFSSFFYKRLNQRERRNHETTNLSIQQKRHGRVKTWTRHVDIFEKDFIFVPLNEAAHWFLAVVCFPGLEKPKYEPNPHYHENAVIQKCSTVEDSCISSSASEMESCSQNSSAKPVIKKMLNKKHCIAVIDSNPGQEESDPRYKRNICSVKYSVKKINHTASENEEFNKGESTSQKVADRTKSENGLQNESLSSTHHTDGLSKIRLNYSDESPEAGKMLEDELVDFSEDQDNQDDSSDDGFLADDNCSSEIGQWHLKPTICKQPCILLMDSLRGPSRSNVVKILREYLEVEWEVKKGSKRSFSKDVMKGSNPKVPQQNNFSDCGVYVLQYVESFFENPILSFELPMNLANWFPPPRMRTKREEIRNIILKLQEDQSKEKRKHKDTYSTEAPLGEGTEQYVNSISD

[3] = target: T3, Sentrin-specific protease 7 (Homo sapiens, UniProt Q9BQF6); test: inhibition of human SENP7 cleavage activity – biochemical, luminescence, SAR follow-up (AID 504497)
T3 sequence (Q9BQF6 whole entry): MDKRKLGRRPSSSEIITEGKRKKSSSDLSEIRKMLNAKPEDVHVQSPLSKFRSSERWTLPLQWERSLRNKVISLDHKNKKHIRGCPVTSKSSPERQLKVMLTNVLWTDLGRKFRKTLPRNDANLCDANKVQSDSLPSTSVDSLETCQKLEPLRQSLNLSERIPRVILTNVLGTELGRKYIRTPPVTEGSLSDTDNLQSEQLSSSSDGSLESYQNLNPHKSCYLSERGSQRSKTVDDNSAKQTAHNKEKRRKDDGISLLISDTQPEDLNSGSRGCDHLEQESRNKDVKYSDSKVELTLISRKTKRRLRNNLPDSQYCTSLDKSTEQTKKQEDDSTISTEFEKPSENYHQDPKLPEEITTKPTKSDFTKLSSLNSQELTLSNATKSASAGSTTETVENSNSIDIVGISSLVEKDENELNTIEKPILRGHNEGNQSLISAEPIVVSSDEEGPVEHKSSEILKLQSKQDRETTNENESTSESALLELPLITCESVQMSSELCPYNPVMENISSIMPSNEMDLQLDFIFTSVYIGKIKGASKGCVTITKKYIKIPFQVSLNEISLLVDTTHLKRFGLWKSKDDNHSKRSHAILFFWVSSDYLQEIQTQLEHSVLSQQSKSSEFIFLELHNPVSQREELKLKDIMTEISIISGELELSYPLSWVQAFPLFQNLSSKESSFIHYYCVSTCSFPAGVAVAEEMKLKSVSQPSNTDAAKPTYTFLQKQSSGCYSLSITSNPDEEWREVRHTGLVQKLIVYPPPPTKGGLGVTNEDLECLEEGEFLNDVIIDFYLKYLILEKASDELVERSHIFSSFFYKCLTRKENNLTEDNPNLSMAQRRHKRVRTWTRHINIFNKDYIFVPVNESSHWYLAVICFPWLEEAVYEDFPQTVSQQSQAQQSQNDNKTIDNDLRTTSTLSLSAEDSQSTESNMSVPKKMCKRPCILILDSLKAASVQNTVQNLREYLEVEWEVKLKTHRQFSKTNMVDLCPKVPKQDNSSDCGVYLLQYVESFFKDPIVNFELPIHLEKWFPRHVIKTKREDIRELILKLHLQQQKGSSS

Caspase-3 = target: T4, Caspase-3 (Homo sapiens, UniProt P42574); test: SAR Analysis of small molecule inhibitors of Sentrin-specific proteases (SENPs) using a Caspase-3 Selectivity assay. [Related pubchem assays (depositor defined):AID2540, AID2599, AID434973, AID489001]
T4 sequence (P42574 whole entry): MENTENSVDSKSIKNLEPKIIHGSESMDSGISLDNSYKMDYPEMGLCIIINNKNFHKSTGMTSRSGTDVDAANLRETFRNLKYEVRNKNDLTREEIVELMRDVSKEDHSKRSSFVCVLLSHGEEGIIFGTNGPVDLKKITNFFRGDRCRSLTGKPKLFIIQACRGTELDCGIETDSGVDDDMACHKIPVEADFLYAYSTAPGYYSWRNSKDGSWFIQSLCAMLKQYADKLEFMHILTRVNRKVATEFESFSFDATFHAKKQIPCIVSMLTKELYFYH

[4] = target: T5, High affinity choline transporter 1 (Homo sapiens, UniProt Q9GZV3); test: human choline transporter potentiators, potency – cell-based, 10-point CRC, membrane potential dye, dose response (AID 602376)
T5 sequence (Q9GZV3 whole entry): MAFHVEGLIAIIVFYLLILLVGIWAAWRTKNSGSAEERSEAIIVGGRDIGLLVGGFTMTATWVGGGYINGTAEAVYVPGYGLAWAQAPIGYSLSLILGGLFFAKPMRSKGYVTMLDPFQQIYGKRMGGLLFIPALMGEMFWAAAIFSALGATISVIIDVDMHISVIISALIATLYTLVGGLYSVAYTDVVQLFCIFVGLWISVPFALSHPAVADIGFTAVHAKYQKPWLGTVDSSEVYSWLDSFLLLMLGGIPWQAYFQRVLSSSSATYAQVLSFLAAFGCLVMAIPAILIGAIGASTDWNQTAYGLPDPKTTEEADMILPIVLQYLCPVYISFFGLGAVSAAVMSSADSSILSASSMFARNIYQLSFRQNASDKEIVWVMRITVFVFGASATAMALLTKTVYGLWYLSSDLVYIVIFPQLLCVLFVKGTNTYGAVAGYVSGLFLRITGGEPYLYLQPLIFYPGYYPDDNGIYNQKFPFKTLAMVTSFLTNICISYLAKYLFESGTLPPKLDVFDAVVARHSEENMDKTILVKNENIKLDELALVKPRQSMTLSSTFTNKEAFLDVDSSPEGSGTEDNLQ

[5] = THP-1 cell cytotoxicity, cytotoxicity control, set 6 (AID 602433); settings: Mycobacterium tuberculosis
[6] = HepG2 cell cytotoxicity, cytotoxicity control, set 6 (AID 602432); settings: Mycobacterium tuberculosis
[7] = viability loss in Vero cells – cell-based, purified and synthesized samples, set 8, cytotoxicity control for M. tuberculosis inhibitor project (AID 602431); settings: Mycobacterium tuberculosis
Aurora kinase A = Aurora kinase A (Homo sapiens, UniProt O14965);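 also: value from the Navigating the Kinome kinase panel profiling, panel entry STK6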
Aurora kinase B = Aurora kinase B (Homo sapiens, UniProt Q96GD4)
[8] = target: High affinity nerve growth factor receptor (Homo sapiens, UniProt P04629);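 also: NTRK1 tested as one member of a kinome-wide profiling panel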
[9] = target: Vascular endothelial growth factor receptor 2 (Homo sapiens, UniProt P35968)
Sequence of Vascular endothelial growth factor receptor 2 (P35968 whole entry): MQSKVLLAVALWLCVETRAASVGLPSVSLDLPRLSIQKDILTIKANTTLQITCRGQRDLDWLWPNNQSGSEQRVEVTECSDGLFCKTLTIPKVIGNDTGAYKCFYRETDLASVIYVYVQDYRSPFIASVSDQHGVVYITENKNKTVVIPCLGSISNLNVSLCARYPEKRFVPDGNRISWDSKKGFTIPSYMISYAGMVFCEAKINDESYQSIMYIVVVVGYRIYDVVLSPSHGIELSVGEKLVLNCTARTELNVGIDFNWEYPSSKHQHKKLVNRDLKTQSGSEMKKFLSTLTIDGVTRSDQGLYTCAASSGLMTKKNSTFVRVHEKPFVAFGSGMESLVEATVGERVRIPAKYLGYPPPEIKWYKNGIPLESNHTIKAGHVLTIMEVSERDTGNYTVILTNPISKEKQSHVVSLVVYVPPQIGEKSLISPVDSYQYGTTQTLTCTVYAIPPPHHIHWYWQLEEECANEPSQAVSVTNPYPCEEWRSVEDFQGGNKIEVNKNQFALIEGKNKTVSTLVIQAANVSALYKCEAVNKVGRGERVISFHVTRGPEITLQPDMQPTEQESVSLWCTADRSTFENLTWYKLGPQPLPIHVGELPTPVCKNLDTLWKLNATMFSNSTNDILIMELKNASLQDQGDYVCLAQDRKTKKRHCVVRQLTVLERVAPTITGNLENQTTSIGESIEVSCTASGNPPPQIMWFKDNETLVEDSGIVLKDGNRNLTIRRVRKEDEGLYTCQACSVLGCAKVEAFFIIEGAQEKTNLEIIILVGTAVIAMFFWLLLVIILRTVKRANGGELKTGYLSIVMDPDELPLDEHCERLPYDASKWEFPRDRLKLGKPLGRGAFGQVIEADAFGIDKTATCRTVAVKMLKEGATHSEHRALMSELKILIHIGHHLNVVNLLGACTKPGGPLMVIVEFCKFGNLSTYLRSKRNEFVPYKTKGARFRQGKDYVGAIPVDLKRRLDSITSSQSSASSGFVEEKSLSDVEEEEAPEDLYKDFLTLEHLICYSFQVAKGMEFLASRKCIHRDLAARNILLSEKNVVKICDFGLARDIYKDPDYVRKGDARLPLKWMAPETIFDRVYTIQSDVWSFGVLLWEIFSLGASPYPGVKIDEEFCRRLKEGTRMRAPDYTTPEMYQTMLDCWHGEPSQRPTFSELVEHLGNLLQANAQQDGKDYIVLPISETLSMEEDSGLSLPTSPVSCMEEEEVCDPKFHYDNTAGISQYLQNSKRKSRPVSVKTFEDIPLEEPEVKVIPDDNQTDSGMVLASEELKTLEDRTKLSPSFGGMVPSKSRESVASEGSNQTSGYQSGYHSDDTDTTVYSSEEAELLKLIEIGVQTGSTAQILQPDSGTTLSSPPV

Sequence of High affinity nerve growth factor receptor (P04629 whole entry): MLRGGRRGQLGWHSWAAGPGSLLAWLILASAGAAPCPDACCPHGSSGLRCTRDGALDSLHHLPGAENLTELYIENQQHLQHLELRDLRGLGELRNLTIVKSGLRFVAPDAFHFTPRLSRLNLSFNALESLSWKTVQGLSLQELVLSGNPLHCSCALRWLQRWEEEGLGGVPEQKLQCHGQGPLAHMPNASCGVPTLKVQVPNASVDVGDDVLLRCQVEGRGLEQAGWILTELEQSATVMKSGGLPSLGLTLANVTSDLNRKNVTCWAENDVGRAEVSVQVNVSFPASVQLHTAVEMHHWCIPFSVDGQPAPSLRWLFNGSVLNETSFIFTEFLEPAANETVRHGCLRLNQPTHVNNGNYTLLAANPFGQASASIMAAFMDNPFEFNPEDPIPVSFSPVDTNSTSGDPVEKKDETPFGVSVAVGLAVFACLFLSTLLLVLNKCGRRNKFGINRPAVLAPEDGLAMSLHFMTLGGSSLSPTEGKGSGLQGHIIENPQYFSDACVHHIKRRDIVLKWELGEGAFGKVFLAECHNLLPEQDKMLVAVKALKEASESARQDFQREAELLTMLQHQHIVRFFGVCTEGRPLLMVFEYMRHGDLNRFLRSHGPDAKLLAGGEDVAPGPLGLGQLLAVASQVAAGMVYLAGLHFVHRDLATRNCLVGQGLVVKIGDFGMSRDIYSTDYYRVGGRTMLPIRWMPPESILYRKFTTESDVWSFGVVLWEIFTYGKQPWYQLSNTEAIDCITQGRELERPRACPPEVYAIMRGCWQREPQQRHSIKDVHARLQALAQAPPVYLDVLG
Sequence of Aurora kinase A (O14965 whole entry): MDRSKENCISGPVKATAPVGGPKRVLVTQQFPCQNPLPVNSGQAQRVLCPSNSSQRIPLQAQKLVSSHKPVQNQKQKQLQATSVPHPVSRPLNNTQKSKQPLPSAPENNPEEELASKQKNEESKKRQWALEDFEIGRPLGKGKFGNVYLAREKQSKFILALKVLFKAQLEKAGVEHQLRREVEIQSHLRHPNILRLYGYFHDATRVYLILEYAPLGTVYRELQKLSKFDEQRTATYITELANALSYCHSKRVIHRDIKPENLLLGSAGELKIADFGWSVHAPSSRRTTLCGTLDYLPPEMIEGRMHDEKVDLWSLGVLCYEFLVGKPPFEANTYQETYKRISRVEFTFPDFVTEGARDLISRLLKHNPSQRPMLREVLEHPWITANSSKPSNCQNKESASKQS
Sequence of Aurora kinase B (Q96GD4 whole entry): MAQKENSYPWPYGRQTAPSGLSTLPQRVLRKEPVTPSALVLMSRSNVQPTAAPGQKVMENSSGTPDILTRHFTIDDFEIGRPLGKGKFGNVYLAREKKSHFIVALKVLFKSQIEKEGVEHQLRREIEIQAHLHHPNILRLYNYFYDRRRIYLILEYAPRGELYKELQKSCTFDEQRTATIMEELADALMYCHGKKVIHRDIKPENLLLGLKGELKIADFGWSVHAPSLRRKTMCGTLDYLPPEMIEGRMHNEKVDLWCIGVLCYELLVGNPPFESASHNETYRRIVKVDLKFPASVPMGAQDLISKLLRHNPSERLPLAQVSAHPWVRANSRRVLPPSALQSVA

## CC(C)(C)CC(=O)Nc1ccc(-c2nc3cc(Cl)ccc3s2)cc1
[1]
  IC50: > 99 µM (inactive)
[2]
  IC50: > 99 µM (inactive)
[3]
  IC50: > 99 µM (inactive)
Caspase-3
  IC50: > 99 µM (inactive)

## CC(C)C(=O)N1CCN(c2ccccc2NC(=O)c2ccc(C#N)cc2F)CC1
[4]
  EC50: 12.9 µM (active)

## COc1ccc(N2CCN(C(=O)c3ccc(CNC(=O)NCc4ccc(Cl)cc4)cc3)CC2)cc1
[5]
  CC50: > 100 µM (inconclusive)
[6]
  CC50: > 50 µM (active)
[7]
  CC50: 29.4 µM (active)

## CCS(=O)(=O)c1ccc(-c2ccc(-c3n[nH]c4c3Cc3cc(O)c(OC)cc3-4)cc2)cc1
Aurora kinase A
  Ki: 0.794 µM (active)
Aurora kinase B
  Ki: 0.000794 µM (active)
[8]
  Ki: 3.98 µM (active)
[9]
  Ki: 1.26 µM (active)
